Measurements: ChEMBL document CHEMBL1201862, “PubChem BioAssay data set” (2004)
Activity calls are given as the source filed them.

Columns and labels:
Vero = test: viability of Vero cells under compound – cytotoxicity control for flavivirus capping enzyme inhibitors (AID 588742); format: functional; conditions: Chlorocebus sabaeus
[1] = molecular target: T1, Zinc finger protein mex-5 (Caenorhabditis elegans, UniProt Q9XUB2); test: potency of MEX-5 RNA-binding blockers – biochemical, C. elegans, fluorescence polarization, dose response (AID 1960)
T1 sequence (Q9XUB2 whole entry): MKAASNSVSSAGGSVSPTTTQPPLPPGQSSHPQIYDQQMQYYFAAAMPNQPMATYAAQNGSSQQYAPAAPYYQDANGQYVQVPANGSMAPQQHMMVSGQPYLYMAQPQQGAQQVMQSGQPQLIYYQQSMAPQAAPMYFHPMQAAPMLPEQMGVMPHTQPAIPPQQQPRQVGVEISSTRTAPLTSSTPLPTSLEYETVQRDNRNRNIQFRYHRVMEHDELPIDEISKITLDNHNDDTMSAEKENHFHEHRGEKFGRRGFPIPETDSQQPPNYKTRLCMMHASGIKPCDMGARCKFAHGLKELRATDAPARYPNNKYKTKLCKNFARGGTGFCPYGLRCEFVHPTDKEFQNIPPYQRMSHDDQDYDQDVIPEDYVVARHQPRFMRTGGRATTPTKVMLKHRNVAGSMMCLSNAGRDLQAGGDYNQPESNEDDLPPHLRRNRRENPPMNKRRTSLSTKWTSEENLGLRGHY

ORF 73 = molecular target: T2, ORF 73 (Human herpesvirus 8, UniProt O40947); test: KSHV LANA DNA-binding disruption – biochemical, fluorescence polarization, cherry-picked samples, dose response (AID 504725); parameters: species or system Human gammaherpesvirus 8;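 also: fluorescence polarization of a labeled DNA duplex reporting LANA DNA binding; potency is for inhibitors that block LANA binding to the DNA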
T2 sequence (O40947 whole entry): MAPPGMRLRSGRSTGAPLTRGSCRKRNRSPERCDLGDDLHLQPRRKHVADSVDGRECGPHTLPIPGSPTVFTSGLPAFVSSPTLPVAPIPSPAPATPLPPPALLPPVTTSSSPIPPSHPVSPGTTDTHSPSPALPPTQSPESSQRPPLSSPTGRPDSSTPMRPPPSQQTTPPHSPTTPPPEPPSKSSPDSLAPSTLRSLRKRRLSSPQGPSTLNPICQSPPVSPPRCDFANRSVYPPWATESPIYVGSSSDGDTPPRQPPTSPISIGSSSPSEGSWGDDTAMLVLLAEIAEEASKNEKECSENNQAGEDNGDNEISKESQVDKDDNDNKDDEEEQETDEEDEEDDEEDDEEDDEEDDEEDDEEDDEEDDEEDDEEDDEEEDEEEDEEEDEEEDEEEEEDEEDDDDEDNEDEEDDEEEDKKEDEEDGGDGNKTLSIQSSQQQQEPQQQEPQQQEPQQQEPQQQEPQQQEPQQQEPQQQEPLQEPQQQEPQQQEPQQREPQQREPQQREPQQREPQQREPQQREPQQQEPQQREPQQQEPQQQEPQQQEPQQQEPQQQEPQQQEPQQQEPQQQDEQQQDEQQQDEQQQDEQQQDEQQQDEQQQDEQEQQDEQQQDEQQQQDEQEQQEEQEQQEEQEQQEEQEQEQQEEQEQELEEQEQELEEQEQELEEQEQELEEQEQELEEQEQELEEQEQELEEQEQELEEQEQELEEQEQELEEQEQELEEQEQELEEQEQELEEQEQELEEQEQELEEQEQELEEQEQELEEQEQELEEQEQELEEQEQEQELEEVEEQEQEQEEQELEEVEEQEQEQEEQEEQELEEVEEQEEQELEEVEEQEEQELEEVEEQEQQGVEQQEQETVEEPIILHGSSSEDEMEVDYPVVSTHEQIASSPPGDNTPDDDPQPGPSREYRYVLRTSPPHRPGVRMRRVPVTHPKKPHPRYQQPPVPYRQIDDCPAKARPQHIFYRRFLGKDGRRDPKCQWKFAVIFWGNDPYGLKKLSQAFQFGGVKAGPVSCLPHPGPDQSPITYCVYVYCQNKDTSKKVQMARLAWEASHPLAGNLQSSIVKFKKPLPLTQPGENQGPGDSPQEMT

Cysteine protease ATG4B = Cysteine protease ATG4B (Homo sapiens, UniProt Q9Y4P1); format: functional;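 also: Fluorescence-based dose-response confirmation assay measuring inhibition of ATG4B activity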
[2] = molecular target: 1-phosphatidylinositol 4,5-bisphosphate phosphodiesterase beta-3 (Homo sapiens, UniProt Q01970); test: Fluorescence-based biochemical high throughput dose response assay to identify inhibitors of phospholipase C isozymes (PLC-B3).
[3] = molecular target: Serine/threonine-protein kinase PLK3 (Homo sapiens, UniProt Q9H4B4); format: functional
[4] = molecular target: Serine/threonine-protein kinase PLK4 (Homo sapiens, UniProt O00444); format: functional;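 also: PLK4 measured as one member of a kinome-wide kinase profiling panel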
Serine/threonine-protein kinase PLK4, sequence (O00444 whole entry): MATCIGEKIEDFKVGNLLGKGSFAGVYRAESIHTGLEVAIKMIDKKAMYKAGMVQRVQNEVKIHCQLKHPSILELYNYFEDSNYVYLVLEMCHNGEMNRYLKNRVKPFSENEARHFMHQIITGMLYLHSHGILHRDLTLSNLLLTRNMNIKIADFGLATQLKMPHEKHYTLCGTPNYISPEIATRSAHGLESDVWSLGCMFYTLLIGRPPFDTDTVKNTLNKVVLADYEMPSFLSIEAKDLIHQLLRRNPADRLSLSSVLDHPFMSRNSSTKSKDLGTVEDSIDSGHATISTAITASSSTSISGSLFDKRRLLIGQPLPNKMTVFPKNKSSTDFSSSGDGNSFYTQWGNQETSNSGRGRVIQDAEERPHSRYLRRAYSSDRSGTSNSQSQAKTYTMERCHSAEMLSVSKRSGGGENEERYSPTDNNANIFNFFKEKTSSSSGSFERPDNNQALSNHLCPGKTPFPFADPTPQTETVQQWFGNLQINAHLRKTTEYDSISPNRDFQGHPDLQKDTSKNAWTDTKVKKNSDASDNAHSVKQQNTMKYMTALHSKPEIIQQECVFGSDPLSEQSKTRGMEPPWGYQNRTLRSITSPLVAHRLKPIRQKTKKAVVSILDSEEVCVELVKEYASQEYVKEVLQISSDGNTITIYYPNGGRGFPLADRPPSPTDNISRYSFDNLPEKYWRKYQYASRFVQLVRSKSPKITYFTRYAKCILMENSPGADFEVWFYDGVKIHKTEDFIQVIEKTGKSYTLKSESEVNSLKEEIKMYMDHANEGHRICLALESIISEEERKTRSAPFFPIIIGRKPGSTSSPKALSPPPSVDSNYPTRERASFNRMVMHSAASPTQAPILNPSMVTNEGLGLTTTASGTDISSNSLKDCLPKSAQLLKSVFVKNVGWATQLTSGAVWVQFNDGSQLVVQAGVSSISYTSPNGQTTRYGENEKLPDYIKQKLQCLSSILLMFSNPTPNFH

[5] = molecular target: Ribosomal protein S6 kinase beta-1 (Homo sapiens, UniProt P23443); format: functional;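 also: measured as one member of a kinome-wide profiling panel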
[6] = molecular target: Casein kinase II subunit alpha (Homo sapiens, UniProt P68400); format: functional
[7] = molecular target: Proto-oncogene tyrosine-protein kinase Src (Homo sapiens, UniProt P12931); format: functional;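 also: SRC entry within a kinome-wide kinase profiling panel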
[8] = molecular target: MAP kinase-activated protein kinase 3 (Homo sapiens, UniProt Q16644); format: functional;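 also: value comes from a kinome-wide profiling panel in which MAPKAPK3 is one of the panel members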
MAP kinase-activated protein kinase 3, sequence (Q16644 whole entry): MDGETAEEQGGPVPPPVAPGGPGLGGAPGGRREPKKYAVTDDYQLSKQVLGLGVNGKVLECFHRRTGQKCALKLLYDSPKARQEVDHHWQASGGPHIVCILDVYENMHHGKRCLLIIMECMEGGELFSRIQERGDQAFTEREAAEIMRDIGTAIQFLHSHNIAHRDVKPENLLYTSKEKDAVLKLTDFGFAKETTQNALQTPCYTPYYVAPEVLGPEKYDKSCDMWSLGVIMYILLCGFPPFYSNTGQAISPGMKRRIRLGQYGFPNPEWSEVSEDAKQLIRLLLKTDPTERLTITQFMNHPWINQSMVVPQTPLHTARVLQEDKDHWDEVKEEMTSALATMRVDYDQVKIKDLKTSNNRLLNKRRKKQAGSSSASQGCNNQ

[9] = molecular target: Interleukin-1 receptor-associated kinase 4 (Homo sapiens, UniProt Q9NWZ3); format: functional
Interleukin-1 receptor-associated kinase 4, sequence (Q9NWZ3 whole entry): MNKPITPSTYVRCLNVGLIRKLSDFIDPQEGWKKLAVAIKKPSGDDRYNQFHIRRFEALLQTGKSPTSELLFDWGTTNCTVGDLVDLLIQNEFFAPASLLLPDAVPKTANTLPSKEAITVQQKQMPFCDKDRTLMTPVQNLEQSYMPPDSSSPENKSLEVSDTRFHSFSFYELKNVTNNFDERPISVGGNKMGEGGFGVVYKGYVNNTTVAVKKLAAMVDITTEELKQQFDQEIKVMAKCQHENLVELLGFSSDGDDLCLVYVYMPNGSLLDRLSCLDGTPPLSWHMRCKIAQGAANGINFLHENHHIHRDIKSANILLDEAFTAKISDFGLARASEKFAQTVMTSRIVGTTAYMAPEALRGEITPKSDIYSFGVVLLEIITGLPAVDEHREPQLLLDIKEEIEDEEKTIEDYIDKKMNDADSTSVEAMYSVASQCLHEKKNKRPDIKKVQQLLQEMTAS

[10] = molecular target: RAC-alpha serine/threonine-protein kinase (Homo sapiens, UniProt P31749); format: functional;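 also: AKT1 affinity measured as one member of a kinome-wide kinase profiling panel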
RAC-alpha serine/threonine-protein kinase, sequence (P31749 whole entry): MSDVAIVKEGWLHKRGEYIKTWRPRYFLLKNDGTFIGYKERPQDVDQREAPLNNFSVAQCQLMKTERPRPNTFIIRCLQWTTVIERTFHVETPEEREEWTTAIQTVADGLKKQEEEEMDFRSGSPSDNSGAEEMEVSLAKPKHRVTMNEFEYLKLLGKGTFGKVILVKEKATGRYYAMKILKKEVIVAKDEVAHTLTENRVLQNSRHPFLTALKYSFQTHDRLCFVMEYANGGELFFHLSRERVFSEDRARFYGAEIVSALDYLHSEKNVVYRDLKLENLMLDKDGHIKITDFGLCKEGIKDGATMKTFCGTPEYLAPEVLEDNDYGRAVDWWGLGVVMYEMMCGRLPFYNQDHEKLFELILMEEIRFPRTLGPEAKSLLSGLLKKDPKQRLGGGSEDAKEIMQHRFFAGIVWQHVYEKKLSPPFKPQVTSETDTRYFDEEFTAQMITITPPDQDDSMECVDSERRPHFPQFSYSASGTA

[11] = molecular target: Serine/threonine-protein kinase 3 (Homo sapiens, UniProt Q13188); format: functional;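 also: measured as one member of a kinome-wide kinase panel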
Serine/threonine-protein kinase 3, sequence (Q13188 whole entry): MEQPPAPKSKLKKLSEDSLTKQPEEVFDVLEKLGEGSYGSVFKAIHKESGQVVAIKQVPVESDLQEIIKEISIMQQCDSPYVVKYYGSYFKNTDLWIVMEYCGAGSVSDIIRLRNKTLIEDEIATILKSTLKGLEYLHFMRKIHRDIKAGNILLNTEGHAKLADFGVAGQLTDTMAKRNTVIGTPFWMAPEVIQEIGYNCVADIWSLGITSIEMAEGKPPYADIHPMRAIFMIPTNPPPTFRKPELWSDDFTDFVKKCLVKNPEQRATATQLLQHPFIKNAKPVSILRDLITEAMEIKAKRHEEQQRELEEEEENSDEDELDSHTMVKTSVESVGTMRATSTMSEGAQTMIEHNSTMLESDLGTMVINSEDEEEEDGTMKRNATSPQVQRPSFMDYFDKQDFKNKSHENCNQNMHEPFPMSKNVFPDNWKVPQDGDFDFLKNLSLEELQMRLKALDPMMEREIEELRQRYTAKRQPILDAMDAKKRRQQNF

[12] = molecular target: Dual specificity mitogen-activated protein kinase kinase 1 (Homo sapiens, UniProt Q02750); test: Navigating the Kinome. Panel member name: MAP2K1; format: functional
[13] = molecular target: ALK tyrosine kinase receptor (Homo sapiens, UniProt Q9UM73); format: functional;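 also: ALK tested as one member of a kinase panel screen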
[14] = molecular target: Tyrosine-protein kinase receptor TYRO3 (Homo sapiens, UniProt Q06418); format: functional;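 also: TYRO3 value obtained as one member of a kinome-wide profiling panel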
[15] = molecular target: Tyrosine-protein kinase BTK (Homo sapiens, UniProt Q06187); format: functional
Tyrosine-protein kinase BTK, sequence (Q06187 whole entry): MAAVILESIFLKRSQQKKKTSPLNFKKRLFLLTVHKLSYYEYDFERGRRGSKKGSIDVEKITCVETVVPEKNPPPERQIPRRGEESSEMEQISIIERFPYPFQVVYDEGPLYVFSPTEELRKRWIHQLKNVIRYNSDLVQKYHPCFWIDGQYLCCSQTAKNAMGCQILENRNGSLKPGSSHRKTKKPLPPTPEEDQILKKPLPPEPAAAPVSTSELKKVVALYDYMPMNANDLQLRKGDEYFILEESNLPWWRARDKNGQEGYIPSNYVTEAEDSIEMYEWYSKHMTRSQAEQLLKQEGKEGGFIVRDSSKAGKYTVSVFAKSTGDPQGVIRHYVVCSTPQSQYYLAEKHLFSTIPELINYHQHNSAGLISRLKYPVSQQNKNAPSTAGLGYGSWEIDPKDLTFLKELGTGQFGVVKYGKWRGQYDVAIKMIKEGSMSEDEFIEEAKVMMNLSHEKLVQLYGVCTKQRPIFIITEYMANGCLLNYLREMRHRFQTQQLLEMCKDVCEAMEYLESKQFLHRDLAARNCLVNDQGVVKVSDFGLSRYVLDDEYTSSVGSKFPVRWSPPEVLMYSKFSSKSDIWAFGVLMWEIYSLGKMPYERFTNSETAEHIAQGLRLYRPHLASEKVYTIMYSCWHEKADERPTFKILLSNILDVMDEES

[16] = molecular target: Serine/threonine-protein kinase TAO1 (Homo sapiens, UniProt Q7L7X3); format: functional
Serine/threonine-protein kinase TAO1, sequence (Q7L7X3 whole entry): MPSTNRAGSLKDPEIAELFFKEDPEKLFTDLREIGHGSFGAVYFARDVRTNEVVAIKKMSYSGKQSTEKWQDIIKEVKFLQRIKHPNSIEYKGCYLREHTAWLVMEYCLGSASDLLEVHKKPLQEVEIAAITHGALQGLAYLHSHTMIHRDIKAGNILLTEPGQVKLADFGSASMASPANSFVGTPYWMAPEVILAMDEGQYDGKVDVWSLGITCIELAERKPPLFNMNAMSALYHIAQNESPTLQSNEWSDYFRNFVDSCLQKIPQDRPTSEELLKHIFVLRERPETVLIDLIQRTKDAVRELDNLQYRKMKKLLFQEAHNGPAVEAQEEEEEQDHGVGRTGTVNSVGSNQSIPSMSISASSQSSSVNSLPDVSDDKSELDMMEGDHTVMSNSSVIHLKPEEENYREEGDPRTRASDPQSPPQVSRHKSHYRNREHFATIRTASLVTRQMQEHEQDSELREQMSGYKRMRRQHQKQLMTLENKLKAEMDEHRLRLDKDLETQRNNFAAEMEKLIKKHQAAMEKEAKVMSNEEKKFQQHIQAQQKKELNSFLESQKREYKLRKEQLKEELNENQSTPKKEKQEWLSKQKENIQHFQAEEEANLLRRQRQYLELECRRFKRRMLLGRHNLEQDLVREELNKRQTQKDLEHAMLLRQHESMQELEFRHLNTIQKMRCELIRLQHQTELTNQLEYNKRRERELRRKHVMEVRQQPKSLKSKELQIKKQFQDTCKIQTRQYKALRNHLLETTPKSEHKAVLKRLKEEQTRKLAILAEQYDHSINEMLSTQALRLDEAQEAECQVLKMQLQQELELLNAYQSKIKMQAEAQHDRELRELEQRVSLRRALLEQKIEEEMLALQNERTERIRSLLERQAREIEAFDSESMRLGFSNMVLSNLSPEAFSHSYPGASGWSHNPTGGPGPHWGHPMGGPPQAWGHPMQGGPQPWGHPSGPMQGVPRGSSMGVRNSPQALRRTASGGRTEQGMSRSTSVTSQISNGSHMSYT

[17] = molecular target: Mitogen-activated protein kinase kinase kinase kinase 2 (Homo sapiens, UniProt Q12851); format: functional;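 also: measured as one member of a kinome-wide kinase panel, with MAP4K2 as the panel entry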
[18] = molecular target: Platelet-derived growth factor receptor alpha (Homo sapiens, UniProt P16234); test: Navigating the Kinome. Panel member name: PDGFRA; format: functional
[19] = molecular target: Leucine-rich repeat serine/threonine-protein kinase 2 (Homo sapiens, UniProt Q5S007); format: functional;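 also: value from a broad kinome-wide panel profiling study in which LRRK2 was one of the kinases tested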
[20] = molecular target: Mitogen-activated protein kinase kinase kinase kinase 4 (Homo sapiens, UniProt O95819); format: functional
[21] = molecular target: Calcium/calmodulin-dependent protein kinase type II subunit alpha (Homo sapiens, UniProt Q9UQM7); test: Navigating the Kinome. Panel member name: CAMK2A; format: functional
Calcium/calmodulin-dependent protein kinase type II subunit alpha, sequence (Q9UQM7 whole entry): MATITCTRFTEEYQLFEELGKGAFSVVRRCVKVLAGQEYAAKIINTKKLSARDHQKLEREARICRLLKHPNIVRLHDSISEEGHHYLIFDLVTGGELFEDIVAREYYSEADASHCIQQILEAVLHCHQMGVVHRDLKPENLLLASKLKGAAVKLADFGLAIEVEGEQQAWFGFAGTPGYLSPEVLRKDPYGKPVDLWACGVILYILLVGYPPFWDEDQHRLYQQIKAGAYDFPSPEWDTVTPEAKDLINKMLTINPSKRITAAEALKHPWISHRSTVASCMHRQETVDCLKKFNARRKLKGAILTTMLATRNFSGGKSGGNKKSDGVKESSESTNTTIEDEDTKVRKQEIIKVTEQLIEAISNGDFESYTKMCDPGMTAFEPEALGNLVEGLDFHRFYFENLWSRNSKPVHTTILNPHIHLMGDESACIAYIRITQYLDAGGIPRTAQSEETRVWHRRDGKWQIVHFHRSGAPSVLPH

`O=C1C=C(NCc2ccccc2)c2ccccc2C1=O` was tested, and the CC50 (Vero) was 19.1 µM (active).

`O=C(O)c1[nH]c2ccccc2c1C(c1cc(Cl)cc([N+](=O)[O-])c1O)c1c(C(=O)O)[nH]c2ccccc12` was tested, and the EC50 [1] was 9.16 µM (active), the AC50 (ORF 73) was 88.1 µM (active) and the IC50 (Cysteine protease ATG4B) was 3.46 µM (active). The IC50 [2] was > 122 µM (inactive).

In the case of `CCOC(=O)c1cn(-c2ccc(O)cc2C)c2cc(-c3ccncc3)ccc2c1=O`, the Ki [3] was > 7.94 µM (inactive), the Ki [4] was > 3.98 µM (inactive) and the Ki [5] was > 6.31 µM (inactive). For the same molecule, the Ki [6] was > 6.31 µM (inactive), the Ki [7] was > 5.01 µM (inactive) and the Ki [8] was > 10 µM (inactive). The Ki [9] was > 10 µM (inactive), the Ki [10] was > 7.94 µM (inactive) and the Ki [11] was > 7.94 µM (inactive).

In the case of `Cc1cc(=O)[nH]nc1-c1ccc(NC(=O)Nc2cc(C(F)(F)F)ccc2F)c(Cl)c1`, the Ki [12] was > 3.16 µM (inactive), the Ki [13] was > 6.31 µM (inactive) and the Ki [14] was > 3.16 µM (inactive). For the same molecule, the Ki [15] was > 6.31 µM (inactive), the Ki [16] was > 6.31 µM (inactive) and the Ki [17] was > 2.51 µM (inactive). The Ki [18] was 0.2 µM (active), the Ki [19] was > 2.51 µM (inactive) and the Ki [20] was > 5.01 µM (inactive). The Ki [21] was > 3.98 µM (inactive).
